Assay results as given in the supplement of paper PMC10307832.

Columns and labels:
Test in all cases: relative viability (nuclei count vs DMSO), 5 days (fraction); higher = more cells survive
[1] = test system: PC-3 [JPC-3]
Procedure, shortened: (§1)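 Each reported value is a median over duplicate plates. It expresses relative viability: treated-well nuclei count divided by vehicle-well nuclei count. Lung cancer cell lines in 1536-well plates were dosed by pin tool a day after seeding, alone with one drug or with a fixed anchor-drug dose plus five library-drug doses (not always all listed) in √10 steps, and nuclei were counted after 5 days.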

[2] = test system: LU99A
Procedure, shortened: as §1

[3] = test system: NCI-H2126
Procedure, shortened: as §1

[4] = test system: NCI-H520
Procedure, shortened: as §1

[5] = test system: 201T
Procedure, shortened: as §1

[6] = test system: SW 1573
Procedure, shortened: as §1

[7] = test system: NCI-H1437
Procedure, shortened: as §1

[8] = test system: NCI-H2347
Procedure, shortened: as §1

[9] = test system: UMC-11
Procedure, shortened: as §1

[10] = test system: NCI-H1355
Procedure, shortened: as §1

[11] = test system: NCI-H727
Procedure, shortened: as §1

[12] = test system: NCI-H2009
Procedure, shortened: as §1

[13] = test system: NCI-H2405
Procedure, shortened: as §1

[14] = test system: NCI-H838
Procedure, shortened: as §1

[15] = test system: HCC-366
Procedure, shortened: as §1

[16] = test system: NCI-H1734
Procedure, shortened: as §1

[17] = test system: BEN
Procedure, shortened: as §1

[18] = test system: HARA
Procedure, shortened: as §1

[19] = test system: HCC-78
Procedure, shortened: as §1

[20] = test system: HCC-44
Procedure, shortened: as §1

[21] = test system: NCI-H441
Procedure, shortened: as §1

For `COCC1(CO)C(=O)C2CCN1CC2` (centres undefined) [PRIMA-1MET] + CC1(C)CCC(c2ccc(Cl)cc2)=C(CN2CCN(c3ccc(C(=O)NS(=O)(=O)c4ccc(N[C@H](CCN5CCOCC5)CSc5ccccc5)c(S(=O)(=O)C(F)(F)F)c4)cc3)CC2)C1 [Navitoclax] (partner 0.5 µM), the relative viability ([1]; first compound 0.2 µM) was 0.853, the relative viability ([1]; first compound 0.6325 µM) was 0.572 and the relative viability ([1]; first compound 2 µM) was 0.816. It also gave a relative viability ([1]; first compound 6.325 µM) of 0.794, a relative viability ([1]; first compound 20 µM) of 0.708 and a relative viability ([2]; first compound 0.2 µM) of 1.06. It also gave a relative viability ([2]; first compound 0.6325 µM) of 0.611, a relative viability ([2]; first compound 2 µM) of 0.898 and a relative viability ([2]; first compound 6.325 µM) of 0.752. The relative viability ([2]; first compound 20 µM) was 0.101, the relative viability ([3]; first compound 0.2 µM) was 0.931 and the relative viability ([3]; first compound 0.6325 µM) was 0.833. The relative viability ([3]; first compound 2 µM) was 0.897, the relative viability ([3]; first compound 6.325 µM) was 0.852 and the relative viability ([3]; first compound 20 µM) was 0.839. It also gave a relative viability ([4]; first compound 0.2 µM) of 1.25, a relative viability ([4]; first compound 0.6325 µM) of 1.06 and a relative viability ([4]; first compound 6.325 µM) of 1.17. The relative viability ([4]; first compound 20 µM) was 0.131, the relative viability ([5]; first compound 0.2 µM) was 1.31 and the relative viability ([5]; first compound 0.6325 µM) was 1.17. The relative viability ([5]; first compound 2 µM) was 1.13, the relative viability ([5]; first compound 6.325 µM) was 1.27 and the relative viability ([5]; first compound 20 µM) was 1.2. It also gave a relative viability ([6]; first compound 0.2 µM) of 1.12, a relative viability ([6]; first compound 0.6325 µM) of 0.614 and a relative viability ([6]; first compound 2 µM) of 0.789. It also gave a relative viability ([6]; first compound 6.325 µM) of 0.0618, a relative viability ([6]; first compound 20 µM) of 0.034 and a relative viability ([7]; first compound 0.2 µM) of 1.14. For the same compound, the relative viability ([7]; first compound 0.6325 µM) was 1.05, the relative viability ([7]; first compound 2 µM) was 1.08 and the relative viability ([7]; first compound 6.325 µM) was 1.14. The relative viability ([7]; first compound 20 µM) was 0.968, the relative viability ([8]; first compound 0.2 µM) was 0.887 and the relative viability ([8]; first compound 0.6325 µM) was 0.708. For the same compound, the relative viability ([8]; first compound 2 µM) was 0.519, the relative viability ([8]; first compound 6.325 µM) was 0.872 and the relative viability ([8]; first compound 20 µM) was 0.754. The relative viability ([9]; first compound 0.2 µM) was 0.347, the relative viability ([9]; first compound 0.6325 µM) was 0.268 and the relative viability ([9]; first compound 2 µM) was 0.332. The relative viability ([9]; first compound 6.325 µM) was 0.331, the relative viability ([9]; first compound 20 µM) was 0.333 and the relative viability ([10]; first compound 0.2 µM) was 1.08. It also gave a relative viability ([10]; first compound 0.6325 µM) of 0.791, a relative viability ([10]; first compound 2 µM) of 0.804 and a relative viability ([10]; first compound 6.325 µM) of 0.947. For the same compound, the relative viability ([10]; first compound 20 µM) was 0.944, the relative viability ([11]; first compound 0.2 µM) was 0.54 and the relative viability ([11]; first compound 0.6325 µM) was 0.41. For the same compound, the relative viability ([11]; first compound 2 µM) was 0.398, the relative viability ([11]; first compound 6.325 µM) was 0.311 and the relative viability ([11]; first compound 20 µM) was 0.105. The relative viability ([12]; first compound 0.2 µM) was 1.2, the relative viability ([12]; first compound 0.6325 µM) was 1.23 and the relative viability ([12]; first compound 2 µM) was 1.23. For the same compound, the relative viability ([12]; first compound 6.325 µM) was 1.16, the relative viability ([12]; first compound 20 µM) was 0.302 and the relative viability ([13]; first compound 0.2 µM) was 0.676. The relative viability ([13]; first compound 0.6325 µM) was 0.989, the relative viability ([13]; first compound 6.325 µM) was 0.52 and the relative viability ([13]; first compound 20 µM) was 0.078. For the same compound, the relative viability ([14]; first compound 0.2 µM) was 1.38, the relative viability ([14]; first compound 0.6325 µM) was 1.12 and the relative viability ([14]; first compound 2 µM) was 1.23. The relative viability ([14]; first compound 6.325 µM) was 1.23, the relative viability ([14]; first compound 20 µM) was 1.15 and the relative viability ([15]; first compound 0.2 µM) was 1.27. It also gave a relative viability ([15]; first compound 0.6325 µM) of 0.959, a relative viability ([15]; first compound 6.325 µM) of 0.981 and a relative viability ([15]; first compound 20 µM) of 0.024. For the same compound, the relative viability ([16]; first compound 0.2 µM) was 0.943, the relative viability ([16]; first compound 0.6325 µM) was 0.772 and the relative viability ([16]; first compound 2 µM) was 0.744. For the same compound, the relative viability ([16]; first compound 6.325 µM) was 0.922, the relative viability ([16]; first compound 20 µM) was 0.221 and the relative viability ([17]; first compound 0.2 µM) was 0.0631. For the same compound, the relative viability ([17]; first compound 0.6325 µM) was 0.0967, the relative viability ([17]; first compound 6.325 µM) was 0.0571 and the relative viability ([17]; first compound 20 µM) was 0.0562. The relative viability ([18]; first compound 0.2 µM) was 1.22, the relative viability ([18]; first compound 0.6325 µM) was 1.02 and the relative viability ([18]; first compound 6.325 µM) was 1.13. It also gave a relative viability ([18]; first compound 20 µM) of 1.11, a relative viability ([19]; first compound 0.2 µM) of 0.876 and a relative viability ([19]; first compound 0.6325 µM) of 0.77. The relative viability ([19]; first compound 6.325 µM) was 0.787, the relative viability ([19]; first compound 20 µM) was 0.0496 and the relative viability ([20]; first compound 0.2 µM) was 1.05. The relative viability ([20]; first compound 0.6325 µM) was 0.689, the relative viability ([20]; first compound 2 µM) was 0.916 and the relative viability ([20]; first compound 6.325 µM) was 1.03. The relative viability ([20]; first compound 20 µM) was 0.931, the relative viability ([21]; first compound 0.2 µM) was 0.561 and the relative viability ([21]; first compound 0.6325 µM) was 0.334. For the same compound, the relative viability ([21]; first compound 2 µM) was 1.02, the relative viability ([21]; first compound 6.325 µM) was 0.644 and the relative viability ([21]; first compound 20 µM) was 0.0807.
